In patent US8183212B2, “Compound having GPR54 agonistic activity” (Kyoto University, priority 2006, dated 2012):
Square brackets hold non-standard residues; d marks the D form. Peptide text beside a SMILES is read from it. 2Nal = N[C@@H](Cc1ccc2ccccc2c1)C(=O)O; 4Amb = NCc1ccc(C(=O)O)cc1; 4Abz = Nc1ccc(C(=O)O)cc1

Target: GPR54 (Homo sapiens, UniProt Q969F8)
Assay: GPR54 agonist activity by Flipr assay (increase in intracellular Ca2+ measured as fluorescence intensity)
Format: cell-based
Conditions: for % activity: fluorescence intensity with 10^-8 M pentapeptide derivative relative to 10^-6 M metastin (45-54) as 100%; for Q (=EC50 (compound)/EC50 [metastin (45-54)]): specific activity value relative to metastin (45-54)
Protocol: A compound having GPR54 agonist activity (pentapeptide derivative) was prepared according to a conventional Fmoc solid phase synthesis process using Rink-amide resin (Fields G B, Noble R L., Int J Pept Protein Res. 1990; 35, 161-214.). The GPR54 agonist activity of the obtained pentapeptide derivative was evaluated according to Flipr assay method wherein an increase in the intracellular Ca^2+ ion concentration due to receptor stimulation is measured as the fluorescence intensity. […] Hereafter, the agonist activity was mainly compared based on the Q value.

Sequence of GPR54 (Q969F8 whole entry, species assumed): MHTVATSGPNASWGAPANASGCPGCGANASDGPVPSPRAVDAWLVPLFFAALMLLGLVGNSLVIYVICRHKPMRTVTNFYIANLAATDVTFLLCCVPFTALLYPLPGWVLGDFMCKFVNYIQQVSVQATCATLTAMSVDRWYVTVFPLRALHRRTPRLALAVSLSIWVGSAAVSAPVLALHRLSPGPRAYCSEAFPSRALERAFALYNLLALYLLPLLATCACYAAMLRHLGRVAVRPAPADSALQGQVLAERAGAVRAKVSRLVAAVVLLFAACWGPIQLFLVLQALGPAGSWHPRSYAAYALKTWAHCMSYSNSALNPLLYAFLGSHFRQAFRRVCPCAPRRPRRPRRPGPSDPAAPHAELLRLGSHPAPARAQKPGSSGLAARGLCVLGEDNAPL

Structure (SMILES)	% activity	other results
CC(C)C[C@H](NC(=O)CNC(=O)[C@H](Cc1ccccc1)NC(=O)c1ccc(CN(Cc2ccccn2)Cc2ccccn2)cc1)C(=O)N[C@@H](CCCNC(=N)N)C(=O)N[C@@H](Cc1c[nH]c2ccccc12)C(N)=O [Compound 1, reference compound]	89%	–
CC(C)C[C@H](NC(=O)CNC(=O)[C@H](Cc1ccccc1)NC(=O)c1ccc(CNC(=N)N)cc1)C(=O)N[C@@H](CCCNC(=N)N)C(=O)N[C@@H](Cc1c[nH]c2ccccc12)C(N)=O [Compound 2, reference compound]	94%	–
CC(C)C[C@H](NC(=O)CNC(=O)[C@H](Cc1ccccc1)NC(=O)c1ccc(CN)cc1)C(=O)N[C@@H](CCCNC(=N)N)C(=O)N[C@@H](Cc1c[nH]c2ccccc12)C(N)=O [Compound 6, 4-(aminomethyl)benzoyl-Phe-Gly-Leu-Arg-Trp-NH2] (H-[4Amb]FGLRW-NH2)	97%	Q (=EC50 (compound)/EC50 [metastin (45-54)]): 3.4
CC(C)C[C@H](NC(=O)CNC(=O)[C@H](Cc1ccc2ccccc2c1)NC(=O)c1ccc(CN)cc1)C(=O)N[C@@H](CCCNC(=N)N)C(=O)N[C@@H](Cc1c[nH]c2ccccc12)C(N)=O [Compound 8, 4-(aminomethyl)benzoyl-Nal(2)-Gly-Leu-Arg-Trp-NH2] (H-[4Amb][2Nal]GLRW-NH2)	89%	agonist activity, times stronger than compound 6 (compared with compound 6): about 4 times
CC(C)C[C@H](NC(=O)CNC(=O)[C@H](Cc1ccccc1)NC(=O)c1ccc(N)cc1)C(=O)N[C@@H](CCCNC(=N)N)C(=O)N[C@@H](Cc1c[nH]c2ccccc12)C(N)=O [Compound 20, 4-aminobenzoyl-Phe-Gly-Leu-Arg-Trp-NH2] (H-[4Abz]FGLRW-NH2)	90%	–
CC(C)C[C@H](NC(=O)CNC(=O)[C@H](Cc1ccccc1)NC(=O)c1c[nH]cn1)C(=O)N[C@@H](CCCNC(=N)N)C(=O)N[C@@H](Cc1c[nH]c2ccccc12)C(N)=O [Compound 26, 4-imidazolylcarbonyl-Phe-Gly-Leu-Arg-Trp-NH2]	88%	–
CC(C)C[C@H](NC(=O)CNC(=O)[C@H](Cc1ccccc1)NC(=O)c1ccc[nH]1)C(=O)N[C@@H](CCCNC(=N)N)C(=O)N[C@@H](Cc1c[nH]c2ccccc12)C(N)=O [Compound 27, 2-pyrrolylcarbonyl-Phe-Gly-Leu-Arg-Trp-NH2]	96%	–
CC(=O)NCc1ccc(C(=O)N[C@@H](Cc2ccccc2)C(=O)NCC(=O)N[C@@H](CC(C)C)C(=O)N[C@@H](CCCNC(=N)N)C(=O)N[C@@H](Cc2c[nH]c3ccccc23)C(N)=O)cc1 [Compound 28, N-acetyl-4-(aminomethyl)benzoyl-Phe-Gly-Leu-Arg-Trp-NH2] (Ac-[4Amb]FGLRW-NH2)	100%	–
CC(C)C[C@H](NC(=O)CNC(=O)[C@H](Cc1ccccc1)NC(=O)c1ccc(O)cc1)C(=O)N[C@@H](CCCNC(=N)N)C(=O)N[C@@H](Cc1c[nH]c2ccccc12)C(N)=O [Compound 30, 4-hydroxybenzoyl-Phe-Gly-Leu-Arg-Trp-NH2]	95%	–
CC(C)C[C@H](NC(=O)CNC(=O)[C@H](Cc1ccccc1)NC(=O)c1ccc([N+](=O)[O-])cc1)C(=O)N[C@@H](CCCNC(=N)N)C(=O)N[C@@H](Cc1c[nH]c2ccccc12)C(N)=O [Compound 37, 4-nitrobenzoyl-Phe-Gly-Leu-Arg-Trp-NH2]	94%	–
CC(C)C[C@H](NC(=O)CNC(=O)[C@H](Cc1ccccc1)NC(=O)c1ccc(Cl)cc1)C(=O)N[C@@H](CCCNC(=N)N)C(=O)N[C@@H](Cc1c[nH]c2ccccc12)C(N)=O [Compound 38, 4-chlorobenzoyl-Phe-Gly-Leu-Arg-Trp-NH2]	92%	–
CC(C)C[C@H](NC(=O)CNC(=O)[C@H](Cc1ccccc1)NC(=O)c1ccc(F)cc1)C(=O)N[C@@H](CCCNC(=N)N)C(=O)N[C@@H](Cc1c[nH]c2ccccc12)C(N)=O [Compound 39, 4-fluorobenzoyl-Phe-Gly-Leu-Arg-Trp-NH2]	96%	–
CC(C)C[C@H](NC(=O)CNC(=O)[C@H](Cc1ccccc1)NC(=O)[C@H](CO)NC(=O)[C@H](CC(N)=O)NC(=O)[C@H](Cc1c[nH]c2ccccc12)NC(=O)[C@H](CC(N)=O)NC(=O)[C@@H](N)Cc1ccc(O)cc1)C(=O)N[C@@H](CCCNC(=N)N)C(=O)N[C@@H](Cc1ccccc1)C(N)=O [Metastin (45-54), reference compound]	100%	EC50: 0.36 to 1.1 nM; Q (=EC50 (compound)/EC50 [metastin (45-54)]): 1.0
